Data as given in US9512086B2, “Compound for promoting apoptosis of cancer cells and a pharmaceutical composition containing the same and uses thereof” (National Chiao Tung University, priority 2014, dated 2016).
Entries after “also recorded” stand apart in the source; their conditions may differ.

What was measured:
[1] = system: A549 cell line; experiment: MTT cell viability, A549 cell line; assay type: cell-based, human
Procedure: The above cell lines were plated in 96-well plates at a density of 1×10^4 cells/well for 16 to 20 hours. […] After drug treatment, the cell lines were washed with phosphate-buffered saline (hereinafter referred to PBS), and were replaced with fresh complete RPMI-1640 medium for 2 days. Thereafter, the medium was replaced and the cells were incubated with 0.5 mg/ml of 3-(4,5-dimethylthiazol-2-yl)-2,5-diphenyltetrazolium bromide reagent (hereinafter referred to MTT, Sigma Chemical Co., St. Louis, Mo.) in complete RPMI-1640 medium for 4 hours. The viable cells converted MTT to formazan that generates a blue-purple color when dissolved in dimethyl sulfoxide (hereinafter referred to DMSO). The intensity of formazan was measured at 565 nm using a plate reader (VERSAmax, Molecular Dynamics, Sunnyvale, Calif.). The relative percentage of cell viability was calculated by dividing the absorbance of treated cells by that of the control in each experiment.
(§1) After drug treatment, the cells were washed with PBS and replaced with fresh complete RPMI-1640 medium for 2 days. Thereafter, the medium was replaced and the cells were incubated with 0.5 mg/mL of MTT reagent (Sigma Chemical Co., St. Louis, Mo.) in complete RPMI-1640 medium for 4 hours. The intensity of formazan was measured at 565 nm using a plate reader (VERSAmax, Molecular Dynamics, Sunnyvale, Calif.). The relative percentage of cell viability was calculated by dividing the absorbance of treated cells by that of the control in each experiment.

[2] = MTT cell viability, HFL1 normal lung fibroblasts; assay type: cell-based; conditions: human, HFL1 normal lung fibroblast cells, 0 to 40 μM
Procedure: as §1

[3] = biological target: T1, EGFR (epidermal growth factor receptor) (Homo sapiens, UniProt P00533); experiment: KinaseProfiler assay, EGFR; assay type: biochemical; conditions: read-out: KAR value (kinase activity remaining)
T1 construct: purchased Merck Millipore (KinaseProfiler service)

[4] = biological target: T2, CHEK1 (checkpoint kinase-1) (Homo sapiens, UniProt O14757); experiment: KinaseProfiler assay, CHEK1; assay type: biochemical; conditions: read-out: KAR value (kinase activity remaining)
T2 construct: purchased Merck Millipore (KinaseProfiler service)
T2 sequence (O14757 whole entry): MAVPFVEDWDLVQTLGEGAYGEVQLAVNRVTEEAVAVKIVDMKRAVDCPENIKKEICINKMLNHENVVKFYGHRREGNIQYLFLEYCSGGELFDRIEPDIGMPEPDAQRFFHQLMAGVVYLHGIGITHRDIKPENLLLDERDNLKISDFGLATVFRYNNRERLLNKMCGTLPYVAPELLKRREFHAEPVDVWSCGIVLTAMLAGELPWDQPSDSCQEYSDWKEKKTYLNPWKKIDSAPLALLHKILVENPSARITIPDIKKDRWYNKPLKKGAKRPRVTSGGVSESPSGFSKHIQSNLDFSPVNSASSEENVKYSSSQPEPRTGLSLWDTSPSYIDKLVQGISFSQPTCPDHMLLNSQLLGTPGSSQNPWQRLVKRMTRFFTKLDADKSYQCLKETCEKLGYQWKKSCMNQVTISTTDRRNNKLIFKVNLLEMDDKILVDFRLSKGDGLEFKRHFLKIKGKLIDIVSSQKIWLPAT
Source text: The kinase activity remaining (KAR) value is inversely related to kinase activity.

[5] = biological target: T3, MARK2 (PAR-1Ba) (Homo sapiens, UniProt Q7KZI7); experiment: KinaseProfiler assay, MARK2; assay type: biochemical; conditions: MARK2; 10 μM; read-out: KAR value (kinase activity remaining)
T3 construct: purchased Merck Millipore (KinaseProfiler service)
T3 sequence (Q7KZI7 1-725 isoform Q7KZI7-4): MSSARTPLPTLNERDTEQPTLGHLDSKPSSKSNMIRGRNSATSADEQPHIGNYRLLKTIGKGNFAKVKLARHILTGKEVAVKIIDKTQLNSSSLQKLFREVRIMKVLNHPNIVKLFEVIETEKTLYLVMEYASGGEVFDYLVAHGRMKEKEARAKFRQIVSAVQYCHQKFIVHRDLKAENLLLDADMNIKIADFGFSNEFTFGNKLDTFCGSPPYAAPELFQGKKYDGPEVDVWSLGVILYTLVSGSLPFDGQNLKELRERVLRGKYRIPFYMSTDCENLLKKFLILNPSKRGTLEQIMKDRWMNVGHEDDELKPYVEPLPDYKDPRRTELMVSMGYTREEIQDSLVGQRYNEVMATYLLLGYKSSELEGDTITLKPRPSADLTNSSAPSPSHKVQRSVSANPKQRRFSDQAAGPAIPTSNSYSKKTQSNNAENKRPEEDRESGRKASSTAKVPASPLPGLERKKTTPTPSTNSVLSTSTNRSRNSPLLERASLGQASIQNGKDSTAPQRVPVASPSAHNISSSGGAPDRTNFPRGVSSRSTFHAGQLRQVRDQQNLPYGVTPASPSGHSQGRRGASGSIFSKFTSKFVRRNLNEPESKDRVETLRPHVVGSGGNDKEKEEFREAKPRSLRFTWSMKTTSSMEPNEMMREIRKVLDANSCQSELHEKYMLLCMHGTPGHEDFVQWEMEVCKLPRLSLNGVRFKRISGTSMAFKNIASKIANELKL
Source text: (§2) The kinase activity remaining (KAR) value is […] related to kinase activity. […]

[6] = biological target: T4, MKNK2 (MAPK-interacting kinase-2) (Homo sapiens, UniProt Q9HBH9); experiment: KinaseProfiler assay, MKNK2; assay type: biochemical; conditions: read-out: KAR value (kinase activity remaining)
T4 construct: purchased Merck Millipore (KinaseProfiler service)
T4 sequence (Q9HBH9 whole entry): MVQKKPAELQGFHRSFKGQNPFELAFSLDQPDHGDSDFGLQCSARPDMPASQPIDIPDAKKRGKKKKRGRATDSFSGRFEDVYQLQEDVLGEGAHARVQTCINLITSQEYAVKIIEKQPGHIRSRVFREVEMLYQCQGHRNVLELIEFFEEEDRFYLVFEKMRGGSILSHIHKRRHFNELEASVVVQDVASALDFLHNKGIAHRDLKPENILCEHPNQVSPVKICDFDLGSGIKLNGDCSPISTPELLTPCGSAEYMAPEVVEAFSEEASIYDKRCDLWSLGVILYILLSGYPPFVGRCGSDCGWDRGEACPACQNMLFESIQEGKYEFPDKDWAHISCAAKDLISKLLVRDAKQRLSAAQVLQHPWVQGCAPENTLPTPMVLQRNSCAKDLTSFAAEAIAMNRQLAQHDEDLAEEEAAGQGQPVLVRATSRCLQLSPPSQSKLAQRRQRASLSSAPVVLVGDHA
Source text: as §2

[7] = biological target: T5, CSNK2A1 (casein kinase-2) (Homo sapiens, UniProt P68400); experiment: KinaseProfiler assay, CSNK2A1; assay type: biochemical; conditions: CSNK2A1; 10 μM; read-out: KAR value (kinase activity remaining)
T5 construct: purchased Merck Millipore (KinaseProfiler service)
Source text: as §2

[8] = biological target: T6, MAPK14 (stress-activated protein kinase-2a) (Homo sapiens, UniProt Q16539); experiment: KinaseProfiler assay, MAPK14; assay type: biochemical; conditions: MAPK14; 10 μM; read-out: KAR value (kinase activity remaining)
T6 construct: purchased Merck Millipore (KinaseProfiler service)
Source text: as §2

[9] = biological target: T7, STK10 (lymphocyte-oriented kinase) (Homo sapiens, UniProt O94804); experiment: KinaseProfiler assay, STK10; assay type: biochemical; conditions: read-out: KAR value (kinase activity remaining)
T7 construct: purchased Merck Millipore (KinaseProfiler service)
T7 sequence (O94804 whole entry): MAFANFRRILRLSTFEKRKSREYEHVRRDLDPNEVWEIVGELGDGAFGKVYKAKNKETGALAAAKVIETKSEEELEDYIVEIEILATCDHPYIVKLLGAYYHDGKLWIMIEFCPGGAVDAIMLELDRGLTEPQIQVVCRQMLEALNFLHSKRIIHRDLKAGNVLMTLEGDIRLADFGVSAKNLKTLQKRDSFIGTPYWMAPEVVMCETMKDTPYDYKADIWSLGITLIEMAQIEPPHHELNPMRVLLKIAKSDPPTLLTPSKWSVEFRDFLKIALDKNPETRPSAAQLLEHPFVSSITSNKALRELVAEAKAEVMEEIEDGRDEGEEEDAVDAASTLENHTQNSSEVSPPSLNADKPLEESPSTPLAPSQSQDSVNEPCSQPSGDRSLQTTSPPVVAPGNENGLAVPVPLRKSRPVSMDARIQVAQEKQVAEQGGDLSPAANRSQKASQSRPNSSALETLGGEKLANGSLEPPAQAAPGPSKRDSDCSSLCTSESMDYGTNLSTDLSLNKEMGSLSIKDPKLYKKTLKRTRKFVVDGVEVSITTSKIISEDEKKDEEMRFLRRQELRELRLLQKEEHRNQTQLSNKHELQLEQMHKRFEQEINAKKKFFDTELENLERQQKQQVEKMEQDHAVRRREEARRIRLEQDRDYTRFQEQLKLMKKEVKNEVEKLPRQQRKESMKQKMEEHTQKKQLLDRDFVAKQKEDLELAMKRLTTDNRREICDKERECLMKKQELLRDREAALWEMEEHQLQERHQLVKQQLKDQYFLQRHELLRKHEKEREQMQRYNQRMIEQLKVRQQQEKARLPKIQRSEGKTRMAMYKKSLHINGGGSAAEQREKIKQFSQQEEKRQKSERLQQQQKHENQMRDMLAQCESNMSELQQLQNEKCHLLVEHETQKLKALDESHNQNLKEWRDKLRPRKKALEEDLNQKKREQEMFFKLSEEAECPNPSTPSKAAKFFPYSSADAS
Source text: as §2

[10] = biological target: T8, FGFR1 (fibroblast growth factor receptor-1) (Homo sapiens, UniProt P11362); experiment: KinaseProfiler assay, FGFR1; assay type: biochemical; conditions: read-out: KAR value (kinase activity remaining)
T8 construct: purchased Merck Millipore (KinaseProfiler service)
T8 sequence (P11362 22-822): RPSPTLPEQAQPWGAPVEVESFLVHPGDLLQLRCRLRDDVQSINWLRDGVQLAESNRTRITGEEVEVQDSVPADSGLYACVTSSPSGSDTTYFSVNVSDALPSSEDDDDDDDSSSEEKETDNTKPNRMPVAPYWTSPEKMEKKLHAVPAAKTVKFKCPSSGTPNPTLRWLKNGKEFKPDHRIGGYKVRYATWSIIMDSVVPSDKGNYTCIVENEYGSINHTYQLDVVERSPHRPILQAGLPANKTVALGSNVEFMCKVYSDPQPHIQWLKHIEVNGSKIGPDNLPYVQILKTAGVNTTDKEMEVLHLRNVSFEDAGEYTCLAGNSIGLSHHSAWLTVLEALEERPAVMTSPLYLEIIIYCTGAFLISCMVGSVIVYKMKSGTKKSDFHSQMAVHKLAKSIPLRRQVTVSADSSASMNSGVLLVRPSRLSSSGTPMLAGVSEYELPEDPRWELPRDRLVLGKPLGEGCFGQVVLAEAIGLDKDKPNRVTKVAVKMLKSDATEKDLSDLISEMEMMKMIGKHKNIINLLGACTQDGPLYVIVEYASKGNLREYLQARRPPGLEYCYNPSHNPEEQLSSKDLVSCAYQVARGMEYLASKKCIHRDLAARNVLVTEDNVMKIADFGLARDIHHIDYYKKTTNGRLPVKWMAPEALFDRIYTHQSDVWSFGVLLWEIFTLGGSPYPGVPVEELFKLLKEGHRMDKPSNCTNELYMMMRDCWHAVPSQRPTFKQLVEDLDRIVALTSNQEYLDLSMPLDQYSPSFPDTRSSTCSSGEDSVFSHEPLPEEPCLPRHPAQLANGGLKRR
Source text: as §2

[11] = biological target: T9, RET (product of ret proto-oncogene) (Homo sapiens, UniProt P07949); experiment: KinaseProfiler assay, RET; assay type: biochemical; conditions: RET; 10 μM; read-out: KAR value (kinase activity remaining)
T9 construct: purchased Merck Millipore (KinaseProfiler service)
T9 sequence (P07949 29-1114): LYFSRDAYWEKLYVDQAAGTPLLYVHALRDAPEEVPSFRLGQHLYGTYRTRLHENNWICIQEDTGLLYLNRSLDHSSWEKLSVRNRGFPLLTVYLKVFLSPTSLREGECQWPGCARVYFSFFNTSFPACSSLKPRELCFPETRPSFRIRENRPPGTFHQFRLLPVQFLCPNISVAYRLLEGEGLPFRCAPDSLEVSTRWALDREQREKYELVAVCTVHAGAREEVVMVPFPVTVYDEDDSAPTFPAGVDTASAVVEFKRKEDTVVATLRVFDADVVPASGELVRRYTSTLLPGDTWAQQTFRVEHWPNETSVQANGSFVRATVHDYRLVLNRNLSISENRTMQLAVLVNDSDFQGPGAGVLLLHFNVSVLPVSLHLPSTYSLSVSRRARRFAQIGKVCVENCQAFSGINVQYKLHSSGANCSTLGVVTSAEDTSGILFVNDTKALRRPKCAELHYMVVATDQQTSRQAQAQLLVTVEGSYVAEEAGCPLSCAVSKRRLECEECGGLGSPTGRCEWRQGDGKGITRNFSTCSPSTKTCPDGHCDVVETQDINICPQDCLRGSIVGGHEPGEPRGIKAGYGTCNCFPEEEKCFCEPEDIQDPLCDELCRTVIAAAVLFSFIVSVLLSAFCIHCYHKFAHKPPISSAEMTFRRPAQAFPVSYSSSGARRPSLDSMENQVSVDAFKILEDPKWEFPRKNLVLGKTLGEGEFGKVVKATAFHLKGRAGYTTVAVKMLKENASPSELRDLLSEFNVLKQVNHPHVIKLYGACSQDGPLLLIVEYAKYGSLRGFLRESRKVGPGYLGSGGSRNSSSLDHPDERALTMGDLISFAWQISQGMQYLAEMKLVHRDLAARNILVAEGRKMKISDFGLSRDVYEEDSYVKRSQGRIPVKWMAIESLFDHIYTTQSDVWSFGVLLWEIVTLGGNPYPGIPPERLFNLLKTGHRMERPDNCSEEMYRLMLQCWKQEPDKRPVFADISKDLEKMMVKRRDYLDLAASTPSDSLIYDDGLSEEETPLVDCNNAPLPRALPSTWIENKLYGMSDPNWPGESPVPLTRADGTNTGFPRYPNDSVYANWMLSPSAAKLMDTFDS
Source text: as §2

[12] = biological target: T10, LCK (lymphocyte kinase) (Homo sapiens, UniProt P06239); experiment: KinaseProfiler assay, LCK; assay type: biochemical; conditions: read-out: KAR value (kinase activity remaining)
T10 construct: purchased Merck Millipore (KinaseProfiler service)
T10 sequence (P06239 whole entry): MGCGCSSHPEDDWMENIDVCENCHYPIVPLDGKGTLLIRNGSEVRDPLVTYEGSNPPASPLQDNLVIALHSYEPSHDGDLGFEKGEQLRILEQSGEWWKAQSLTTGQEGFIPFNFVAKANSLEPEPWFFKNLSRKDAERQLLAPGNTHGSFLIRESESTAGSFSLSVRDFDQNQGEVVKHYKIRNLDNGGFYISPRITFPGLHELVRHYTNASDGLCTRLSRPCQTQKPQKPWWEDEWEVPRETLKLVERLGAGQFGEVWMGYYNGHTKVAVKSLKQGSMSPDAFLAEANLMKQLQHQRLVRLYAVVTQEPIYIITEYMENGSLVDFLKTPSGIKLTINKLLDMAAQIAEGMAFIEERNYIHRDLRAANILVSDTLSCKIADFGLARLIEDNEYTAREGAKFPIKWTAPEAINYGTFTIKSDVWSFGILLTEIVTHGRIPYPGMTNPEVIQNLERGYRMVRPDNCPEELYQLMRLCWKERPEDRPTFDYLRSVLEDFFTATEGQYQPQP

[13] = biological target: T11, SYK (splenic tyrosine kinase) (Homo sapiens, UniProt P43405); experiment: KinaseProfiler assay, SYK; assay type: biochemical; conditions: SYK; 10 μM; read-out: KAR value (kinase activity remaining)
T11 construct: purchased Merck Millipore (KinaseProfiler service)
Source text: as §2

[14] = system: A549 cells; experiment: Annexin V-PI apoptosis analysis by flow cytometry; assay type: cell-based, human; conditions: 10-40 μM for 24 hours
Procedure: The Annexin V-PI staining kit (BioVision, Mountain View, Calif.) was used to exam the cells by incubating with fluorescent isothiocyanate (FITC)-conjugated-Annexin V and PI according to the manufacturer's instruction. […] The cells were cultured in 60-mm Petri dish at a density of 7×10^5 cells for 16 to 20 hours. […] The cells were trypsinized and collected by centrifugation at 1500 rpm for 5 minutes. Thereafter, the cells were incubated with 500 μl Annexin V-PI labeling solution (containing 5 μl Annexin V-FITC and 5 μl PI in PBS) at room temperature in the dark for 5 minutes. To avoid cell aggregation, the cell solutions were filtered through a nylon mesh membrane (Becton-Dickinson, San Jose, Calif.). Finally, the samples were analyzed immediately using flow cytometer (FACS Calibur, BD Biosciences, Heidelberg, Germany). The percentage of Annexin V-PI staining cells was quantified from a minimum of 10,000 cells by CellQuest software (BD Biosciences).

[15] = system: A549 cells; experiment: Cell growth, cell number by hemocytometer; assay type: cell-based, human; conditions: 30 μM for 24 hours, then cultured 2-6 days
Procedure: The cells were washed with PBS after the treatment. […] The cell number was calculated with hemocytometer.

[16] = system: A549 cells; experiment: Cell cycle analysis, PI staining and flow cytometry; assay type: cell-based, human; conditions: 24 hours
Procedure: After the treatment, the cells were collected and fixed with ice-cold 70% ethanol overnight at −20° C. After centrifugation at 1500 rpm for 5 minutes, the pellets were treated with 4 μg/ml PI solution containing 1% Triton X-100 and 50 μg/ml RNase at 37 °C for 30 minutes in the dark. To avoid cell aggregation, the cell solutions were filtrated through nylon membrane (Becton-Dickinson, San Jose, Calif.). Subsequently, the samples were analyzed by flow cytometry. For each measurement, 10,000 cells were analyzed for DNA content. The percentage of cell cycle phases was quantified by ModFit LT software (Ver. 2.0, Becton-Dickinson).

[17] = system: A549 human lung xenograft tumors; experiment: Tumor growth of xenograft human lung tumors in nude mice; assay type: in vivo; conditions: 30 mg/kg three times every 4 days, day 16; control groups 406.52 mm^3
Source text: (§3) The present invention determines the effect of Analogue-18 on tumor growth of the xenograft human lung tumors in nude mice. BALB/cAnN.Cg-FoxnInu/CrlNarl mice (3-week-old male) were obtained from BioLASCO (BioLASCO Co., Ltd., Taipei, Taiwan). After 2 weeks for environmental adaption, the mice were used for human lung cancer cell inoculation. Solid A549 flank tumors were established by subcutaneous injection of 2×10^6 cells. After 10 days, the mice bearing A549 human lung xenograft tumors were injected with 100 μl corn oil (control) or 30 mg/kg Analogue-18 for three times every 4 days. The tumor size of the mice was measured by a digital caliper every 4 days and calculated by the following formula: (length)×(width)^2×0.5. The xenograft tumors were harvested from scarified mice. The tumors were homogenized and the total lysate were subjected to Western blot analysis according to Example 4.

[18] = system: survivin; experiment: Western blot of survivin protein in xenograft tumors; assay type: in vivo, nude mice; conditions: 30 mg/kg three times every 4 days
Source text: as §3

[19] = system: PARP; experiment: Western blot of cleaved PARP in A549 cells; conditions: 10-40 μM, 24 hours
Procedure: (§4) The protease inhibitors including 1 μg/ml aprotinin, 0.5 μg/ml leupeptin, and 100 μg/ml 4-(2-aminoethyl)benzenesulfonyl fluoride were added to the cell suspensions. The lysates were vibrated for 30 minutes at 4° C. and centrifuged at 10,000 rpm for 10 minutes. The protein concentrations were determined by the BCA protein assay kit (Pierce, Rockford, Ill.). […] The membranes were blocked overnight at 4° C. using blocking buffer (5% non-fat dried milk in solution containing 50 mM Tris/HCl (pH 8.0), 2 mM CaCl2, 80 mM NaCl, 0.05% Tween 20 and 0.02% sodium azide). The membranes were sequentially hybridized with primary antibody and followed with a horseradish peroxidase-conjugated secondary antibody. The protein bands were visualized on the X-ray film using the enhanced chemiluminescence detection system (PerkinElmer Life and Analytical Sciences, Boston, Mass.). […] To verify equal protein loading and transfer, actin was used as the protein loading control. The gel digitizing software, Un-Scan-It gel (Ver. 5.1, Silk Scientific, Inc., Orem, Utah), was used to analyze the intensity of protein bands on X-ray film.
(§5) A549 cells were plated at a density of 1×10^6 cells per 60-mm Petri dish in complete medium for 16 to 20 hours. […] To verify equal protein loading and transfer, actin was used as the protein loading control.

[20] = system: caspase 3; experiment: Western blot of active caspase 3 in A549 cells; conditions: 10-40 μM, 24 hours
Procedure: as §4, §5

[21] = system: survivin; experiment: Western blot of survivin protein expression in A549 cells; conditions: 0 to 40 μM, 24 hours
Procedure: as §4, §5

In the case of CCCCCCCCCCCCOC(=O)CCC(=O)N1CCN(CCCOc2cc3c(Nc4ccc(F)c(Cl)c4)ncnc3cc2OC)CC1 [Analogue-18, dodecyl 4-(4-(3-(4-(3-chloro-4-fluorophenylamino)-7-methoxyquinazolin-6-yloxy)propyl)piperazin-1-yl)-4-oxobutanoate], the “toxicity effect on A549 cell line” value ([1]; 24 hours, in comparison with Iressa) is reported as “best toxicity effect; also recorded: more effective on reducing cell viability than Iressa”, the toxicity effects ([1]; A549, 40 μM, 24 hours) is reported as “more than 99%” and the increased toxicity effect ([1]; A549 cell line, 40 μM) is reported as 15-20 times. For the same molecule, the viability at 10 µM ([1]; Homo sapiens, A549 cell line, 10 μM, 24 hours, MTT) was 95.5%, the viability at 20 µM ([1]; Homo sapiens, A549 cell line, 20 μM, 24 hours, MTT) was 86.8% and the viability at 40 µM ([1]; Homo sapiens, A549 cell line, 40 μM, 24 hours, MTT) was 5.7%. The viability at 60 µM ([1]; Homo sapiens, A549 cell line, 60 μM, 24 hours, MTT) was 2%, the viability at 80 µM ([1]; Homo sapiens, A549 cell line, 80 μM, 24 hours, MTT) was 2.3% and the viability at 24 h [2] was over 30%. It also gave a remaining activity at 10 µM [3] of -2%, a remaining activity at 10 µM [4] of 69% and a remaining activity at 10 µM [5] of 84%. For the same molecule, the remaining activity at 10 µM [6] was 85%, the remaining activity at 10 µM [7] was 76% and the remaining activity at 10 µM [8] was 87%. It also gave a remaining activity at 10 µM [9] of 43%, a remaining activity at 10 µM [10] of 82% and a remaining activity at 10 µM [11] of 98%. For the same molecule, the remaining activity at 10 µM [12] was 89%, the remaining activity at 10 µM [13] was 87% and the “average of total apoptosis” value [14] was “around 67.9%”. The “cell growth of A549 cells” value [15] was “inhibit cell growth of A549 cells, and Analogue-18 is more effective”, the “fractions of G1, S and G2/M phases” value ([16]; 0 to 40 μM) was “does not significantly alter” and the “average percentage of sub-G1 fractions” value ([16]; 40 μM) was 66.7%. For the same molecule, the average tumor size [17] was 118.19 mm^3, the “survivin protein levels of xenograft tumors” value [18] was “significantly reduced about half amount” and the “cleaved form of PARP” value [19] was “induced the cleaved form of PARP”. The “active form of caspase 3” value [20] was “significantly induced” and the survivin protein expression [21] was “significantly inhibited surviving protein expression”.
